Reference: patent publication US10793594B2, “Antimicrobial compounds and/or modulators of microbial infections and methods of using the same” (Indiana University Research and Technology Corporation, priority 2017, dated 2020)
Where a SMILES comes first, the peptide text is derived from it. [ ]: non-standard residue; d: D form. ξ: configuration not given here. ξPhe(3-F) = NC(Cc1cccc(F)c1)C(=O)O; ξPhe(4-F) = NC(Cc1ccc(F)cc1)C(=O)O

Experiments:
[1] = system: Ca and/or Cn (Candida albicans, Cryptococcus neoformans); test: CO-ADD preliminary screen and hit confirmation against fungi; assay type: cell-based; settings: two replicated lots, mixtures of enantiomers or diastereomers; for preliminary activity against Ca and/or Cn (preliminary screen): single concentration
Description: (§1) Briefly, CO-ADD, The Community for Open Antimicrobial Drug Discovery, is a global open-access screening initiative launched in February 2015 to uncover significant and rich chemical diversity held outside of corporate screening collections. For screening, about 1 mg of pure compound is required and the compounds must be soluble in DMSO. In the preliminary screening, compounds are tested against some ESKAPE pathogens, including, but are not limited to, E. coli, K. pneumoniae, A. baumannii, P. aeruginosa, S. aureus (MRSA), as well as the fungi, for example, C. neoformans and C. albicans. The screen uses a single concentration (e.g., […]) and provides initial activity data to select compounds for further more detailed screening. Active compounds from the preliminary screening are tested in dose response antimicrobial assays to confirm their activity. Active compounds are screened for adverse effects, such as cytotoxicity, critical micelle concentration and membrane depolarization, as well as for their purity. Then, the hit compound is tested against a broader panel of microbes with multidrug-resistant (MDR) and pan-resistant bacterial strains and clinical isolates, with different co-factors (such as serum or lung surfactant). The hit validation includes initial ADMET screening, including haemolysis, microsome and plasma stability and protein binding. See CO-ADD website for more details.
(§2) The minimum inhibitory concentration (MIC) was determined following the CLSI (Clinical Laboratory and Standards Institute) guidelines, identifying the lowest concentration at which full inhibition of the bacteria or fungi has been detected. […] Note that MIC values are discrete values based on the concentration in a specific well.
(§3) Selection of Hits: Samples with MIC (≤16 μg/mL or ≤10 μM) are declared as a hit. For toxicity (cytotoxicity and haemolytic activity) all sample/s with CC50/HC10≤maximum tested concentration are considered active, or toxic. Since the maximum tested concentration is the same for toxicity and antimicrobial activity, no therapeutic index (MIC/CC50 or MIC/HC10) can be calculated and all sample/s with toxic activity are flagged.
Growth inhibition of C. albicans was determined measuring absorbance at 530 nm (OD530), while the growth inhibition of C. neoformans was determined measuring the difference in absorbance between 600 and 570 nm (OD600-570), after the addition of resazurin (0.001% final concentration) and incubation at 35° C. for additional 2 h. The absorbance was measured using a Biotek Synergy HTX plate reader. The percentage of growth inhibition was calculated for each well, using the negative control (media only) and positive control (bacteria without inhibitors) on the same plate as references. Percentage growth inhibition of an individual sample is calculated based on Negative controls (media only) and Positive Controls (bacterial/fungal media without inhibitors). Negative inhibition values indicate that the growth rate (or OD600) is higher compared to the Negative Control (Bacteria/fungi only, set to 0% inhibition). The growth rates for all bacteria and fungi has a variation of −/+10%, which is within the reported normal distribution of bacterial/fungal growth.
In addition, two values are used as quality controls for individual plates: Z′-Factor [1−(3*(sd(NegCtrl)+sd(PosCtrl))/(average(PosCtrl)−average(NegCtrl)))] and Standard Antibiotic controls at different concentrations (>MIC and <MIC). […] Active samples are defined as those with inhibition values equal to or above 80% and abs(Z-Score) above 12.51 for either replicate (n=2 on different plates) were classed as active. Partially active compounds are defined as those with inhibition values between 50.9%-79.9% or abs(Z-Score) below 12.51.
Samples were prepared in DMSO and water to a final testing concentration of 32 μg/mL or 20 μM and serially diluted 1:2 fold for 8 times. […]

Acinetobacter baumannii = test: CO-ADD preliminary screen and hit confirmation against Acinetobacter baumannii; assay type: cell-based; settings: for hit confirmation against Acinetobacter baumannii: hit confirmation (HC), separated diastereomers; for activity against Acinetobacter baumannii in the preliminary screen: preliminary screen (PS)
Description: as §1, §2, §3
Referring now to FIGS. 52 and 53, inhibition of bacterial growth was determined measuring absorbance at 600 nm (OD600), using a Tecan M1000 Pro monochromator plate reader. The percentage of growth inhibition was calculated for each well, using the negative control (media only) and positive control (bacteria without inhibitors) on the same plate as references.
Samples were prepared in DMSO and water to a final testing concentration of 32 μg/mL or 20 μM and serially diluted 1:2 fold for 8 times. Each sample concentration was prepared in 384-well plates, non-binding surface plate (NBS; Corning 3640) for each bacterial/fungal strain or Tissue-culture treated (TC-treated; Corning 3712/3764) black for mammalian cell types, all in duplicate (n=2), and keeping the final DMSO concentration to a maximum of 0.5% DMSO. All the sample preparation was done using liquid handling robots.
For the antibacterial screening, all bacteria were cultured in Cation-adjusted Mueller Hinton broth (CAMHB) at 37° C. overnight. A sample of each culture was then diluted 40-fold in fresh broth and incubated at 37° C. for 1.5-3 h. The resultant mid-log phase cultures were diluted (CFU/mL measured by OD600), then added to each well of the compound containing plates, giving a cell density of 5×10^5 CFU/mL and a total volume of 50 μL. All the plates were covered and incubated at 37° C. for 18 h without shaking.

[2] = system: Cryptococcus neoformans (Cn); test: CO-ADD antimicrobial screening, growth of Cryptococcus neoformans (MIC); assay type: cell-based
Description: Briefly, CO-ADD, The Community for Open Antimicrobial Drug Discovery, is a global open-access screening initiative launched in February 2015 to uncover significant and rich chemical diversity held outside of corporate screening collections. For screening, about 1 mg of pure compound is required and the compounds must be soluble in DMSO. In the preliminary screening, compounds are tested against some ESKAPE pathogens, including, but are not limited to, E. coli, K. pneumoniae, A. baumannii, P. aeruginosa, S. aureus (MRSA), as well as the fungi, for example, C. neoformans and C. albicans. The screen uses a single concentration (e.g., […]) and provides initial activity data to select compounds for further more detailed screening. Active compounds from the preliminary screening are tested in dose response antimicrobial assays to confirm their activity. […]
The minimum inhibitory concentration (MIC) was determined following the CLSI (Clinical Laboratory and Standards Institute) guidelines, identifying the lowest concentration at which full inhibition of the bacteria or fungi has been detected. […]
Fungi strains were cultured for 3 days on Yeast Extract-Peptone Dextrose (YPD) agar at 30° C. A yeast suspension of 1×106 to 5×10^6 CFU/mL (as determined by OD530) was prepared from five colonies. […]

[3] = system: Pseudomonas aeruginosa (PA14); test: Pa biofilm formation/growth inhibition assay (crystal violet); assay type: cell-based; settings: phenylalanine deficient biofilm assay
bacterial biofilms = settings: cited from earlier work

In the case of `N[C@@H](Cc1ccc(O)cc1)C(=O)NC(Cc1cccc(F)c1)C(=O)O` (stereo partly drawn) [compound 45, (2R,2S)-[2-((S)-2-amino-3-(4-hydroxyphenyl)propanamido)]-3-(3-fluorophenyl)propanoic acid], the “preliminary activity against Ca and/or Cn (preliminary screen)” value (shortened to “preliminary activity … (preliminary screen)”) [1] was “preliminary activity”.

In the case of `C[C@H](N)C(=O)NC(Cc1cccc(F)c1)C(=O)O` (stereo partly drawn) [compound 44, (2R,2S)-[2-((S)-2-aminopropanamido)]-3-(3-fluorophenyl)propanoic acid], the “activity against Ca and/or Cn confirmed (hit confirmation)” value (shortened to “activity against Ca and/or Cn confirmed”) [1] was “confirmed”.

With `NCC(=O)NC(Cc1cccc(F)c1)C(=O)O` [compound 43, (2R,2S)-[2-(2-aminoacetamido)]-3-(3-fluorophenyl)propanoic acid] (H-Gly-[ξPhe(3-F)]-OH) the “preliminary activity … (preliminary screen)” value [1] was “preliminary activity”.

In the case of `C[C@H](N)C(=O)N[C@@H](Cc1cccc(F)c1)C(=O)O` (single isomer, unassigned) [44a], the “hit confirmation against Acinetobacter baumannii” value (Acinetobacter baumannii) was “hit confirmation was observed” and the “activity against Acinetobacter baumannii in the preliminary screen” value (shortened to “activity against Acinetobacter baumannii”) (Acinetobacter baumannii) was “not seen”.

With `NCC(=O)NC(Cc1ccc(F)cc1)C(=O)O` [compound 30, (2R,2S)-[2-(2-aminoacetamido)]-3-(4-fluorophenyl)propanoic acid] (H-Gly-[ξPhe(4-F)]-OH) the “preliminary activity … (preliminary screen)” value [1] was “preliminary activity”.

With `CC(C)C[C@H](N)C(=O)NC(Cc1cccc(F)c1)C(=O)O` (stereo partly drawn) [compound 46, (2R,2S)-[2-((S)-2-amino-4-methylpentanamido)]-3-(3-fluorophenyl)propanoic acid] the “preliminary activity … (preliminary screen)” value [1] was “preliminary activity”.

In the case of `N[C@@H](Cc1ccc(O)cc1)C(=O)N[C@@H](Cc1cccc(F)c1)C(=O)O` (single isomer, unassigned) [45a], the “hit confirmation against Acinetobacter baumannii” value (Acinetobacter baumannii) was “hit confirmation was observed” and the “activity against Acinetobacter baumannii” value (Acinetobacter baumannii) was “not seen”.

In the case of `C[C@H](N)C(=O)NC(Cc1ccccc1F)C(=O)O` (stereo partly drawn) [compound 36, (2R,2S)-[2-((S)-2-aminopropanamido)-3-(2-fluorophenyl)]propanoic acid], the “inhibitory effects on the growth of Cryptococcus neoformans (Cn)” value [2] was “exhibited inhibitory effects”, the “ability to inhibit the growth of P. aeruginosa (Pa) in a biofilm assay” value [3] was “potent ability to inhibit the growth” and the “activity against Ca and/or Cn confirmed” value [1] was “confirmed”.

For `N[C@H](Cc1ccc(O)cc1)C(=O)O` [D-Tyrosine], the “trigger for the disassembly of bacterial biofilms” value (bacterial biofilms) is listed as “particularly active”.

For `O=C(O)C(Cc1cccc(F)c1)NC(=O)[C@@H]1CCCN1` (stereo partly drawn) [compound 48, (2R,2S)-[3-(3-fluorophenyl)]-2-((S)-pyrrolidine-2-carboxamido)propanoic acid] (H-Pro-[ξPhe(3-F)]-OH), the “preliminary activity … (preliminary screen)” value [1] was “preliminary activity”.

With `C[C@H](N)C(=O)NC(Cc1ccc(F)cc1)C(=O)O` (stereo partly drawn) [compound 25, (2R,2S)-[2-((S)-2-aminopropanamido)]-3-(4-fluorophenyl)propanoic acid] the “inhibitory effects on the growth of Cryptococcus neoformans (Cn)” value [2] was “exhibited inhibitory effects”, the “ability to inhibit the growth of P. aeruginosa (Pa) in a biofilm assay” value [3] was “potent ability to inhibit the growth” and the “activity against Ca and/or Cn confirmed” value [1] was “confirmed”.

In the case of `N[C@H](C(=O)NC(Cc1cccc(F)c1)C(=O)O)c1ccccc1` (stereo partly drawn) [compound 52, (2R,2S)-[2-((S)-2-amino-2-phenylacetamido)]-3-(3-fluorophenyl)propanoic acid], the “preliminary activity … (preliminary screen)” value [1] was “preliminary activity”.

For `C[C@@H](O)[C@H](N)C(=O)NC(Cc1ccc(F)cc1)C(=O)O` (stereo partly drawn) [compound 108, (2R,2S)-[((2S,3R)-2-amino-3-hydroxybutanamido)]-3-(4-fluorophenyl)propanoic acid] (H-Thr-[ξPhe(4-F)]-OH), the “ability to inhibit the growth of P. aeruginosa (Pa) in a biofilm assay” value [3] was “had shown activity”.

With `C[C@H](N)C(=O)N[C@@H](Cc1ccc(F)cc1)C(=O)O` (single isomer, unassigned) [25a] the “hit confirmation against Acinetobacter baumannii” value (Acinetobacter baumannii) was “hit confirmation was observed” and the “activity against Acinetobacter baumannii” value (Acinetobacter baumannii) was “not seen”.
